Data from patent publication US11883423B2, “Nucleobase analogue derivatives and their applications” (BOARD OF REGENTS, THE UNIVERSITY OF TEXAS SYSTEM, priority 2014, dated 2024).

Legend:
[1] = Octanol-water (PBS 7.4) partition coefficient; format: physicochemical; conditions: in octanol under the test conditions
Description: The octanol-water partition coefficient of Gem-DHA was determined using a previously reported method with minor modifications (Hsu CH et al. Pharm Res. 2003, 20(6), 918-925). Briefly, octanol and PBS (7.4, 0.01 M) were mutually saturated for 24 h. Gem-DHA was dissolved in octanol (0.4 mg/ml, PBS-saturated) and 10 μl of the solution were withdrawn and diluted with methanol to measure Gem-DHA concentration using HPLC (C1) PBS was added to octanol at a volume ratio (VPBS/Voct) of 20:1 into a sealed vial under nitrogen, and the mixture was agitated vigorously at room temperature using a horizontal orbital shaker at 250 rpm (Max Q 2000, Thermo Scientific, Waltham, Mass.) while protected from light. After 5 h, the mixture was centrifuged (14,000 rpm, 15 min) and the concentration of Gem-DHA in the octanol layer was determined using HPLC (C2). Partition coefficient (Koctiwater) was calculated using the following equation: […]
The partition coefficient (octanol/PBS 7.4) of Gem-DHA was also measured using an indirect method by determining the concentration of the drug in octanol, before and after partitioning.

[2] = Solubility in ethanol or Tween 80; format: physicochemical
[3] = system: Panc-02 cells; experiment: Anti-proliferative activity, MTT assay, Panc-02 cells; format: cell-based; conditions: Mus musculus, Panc02, 24 h
Description: (§1) The anti-proliferative activity of Gem-DHA was evaluated in Panc-02, TC-1, Panc-1-Luc, and BxPC-3 cell lines. For Panc-02 and TC-1 cells, cells (1,500/well for Panc-02 and 3,000/well for TC-1) were seeded in 96-well plates and incubated at 37° C. and 5% CO2 overnight. The cells were then treated with various concentrations of Gem-DHA or other compounds for 24 h. For BxPC-3 and Panc-1-Luc cells, 3,000 and 1,000 cells/well were used, respectively, and cells were co-incubated with the Gem-DHA for 72 h. Cell viability was determined using an MTT assay as previously described (Naguib YW et al. Mol Pharm. 2014, 11(4), 1239-1249). Gemcitabine HCl was dissolved in cell culture medium, whereas Gem-DHA and DHA were dissolved in dimethylsulfoxide (DMSO). The values of IC50 were calculated using GraphPad Prism (GraphPad software, Inc., La Jolla, CA).

[4] = system: TC-1 mouse lung cancer cells; experiment: Anti-proliferative activity, MTT assay, TC-1 cells; format: cell-based; conditions: 24 h
Description: as §1

[5] = system: Panc-02 tumor cells; experiment: Cytotoxicity after 4 h co-incubation, MTT test; format: cell-based, mouse; conditions: Panc-02 cells, at 60 μM
Description: The mechanisms underlying the cytotoxicity of the Gem-DHA may be different from that of gemcitabine. For example, in cell culture studies, Panc-02 cells were seeded into 96-well plates (1,500 cells per well) and incubated at 37° C., 5% CO2 for 24 h. They were then co-incubated with various concentrations of Gem-DHA, gemcitabine HCl alone, or DHA alone for 4 h, and cell viability was determined using an MTT test.

[6] = system: Panc-1-Luc tumors; experiment: Antitumor activity against orthotopic Panc-1-Luc tumors in nude mice, with tumor histology; format: in vivo
Text: Nude mice with intrapancreatically injected Panc-1-Luc human pancreatic cancer cells were used as a mouse model of pancreatic cancer. The National Institutes of Health guidelines for animal use and care were followed Animal protocols were approved by the Institutional Animal Care and Use Committee at the University of Texas at Austin. Panc-1-Luc cells (Muniz VP et al. Mol Cancer Res. 2011, 9(7), 867-877) were implanted orthotopically by injecting 1×10^6 cells into (the tail of) the pancreas.
Panc-1-Luc cell suspension was prepared at a concentration of 2×10^7 per ml in a 1:1 (v/v) mixture of DMEM and Matrigel. Tumor cells were then injected into the pancreas of male athymic nude mice (6-8 weeks, Charles River Laboratories, Wilmington, Mass.) following a surgical procedure (Raut CP et al. Cancer Biol Ther. 2004, 3(12), 1217-1224; Bruns CJ et al. Neoplasia. 1999, 1(1), 50-62). Briefly, after mice were anesthetized using isoflurane, the skin and peritoneum were cut open about 1 cm in length using sterile surgical scalpels. The pancreas was pulled out, and 50 μL of the cell suspension were injected slowly until a small bleb was formed. After the needle was withdrawn, a small cotton plug was applied for 10 s. The pancreas was returned back, the peritoneum was sutured with Monocryl™ bioresorbable sutures (Ethicon, Somerville, N.J.), and the skin was then closed using surgical clips. Mice were s.c. injected with buprenorphine (0.1 mg/kg) as a pain killer and were left to heal for one week. Tumor progress was monitored using an IVIS™ Spectrum imaging system (Caliper, Hopkinton, MA). For IVIS imaging, each mouse was i.p. injected with a luciferin solution (15 mg/ml) at a dose of 0.15 mg/g body weight in sterile DPBS, anesthetized with isoflurane, and imaged 10 min after luciferin injection. Four weeks after tumor implantation, mice with tumors were randomized into 3 groups (n=5-7) and intraperitoneally injected (i.p) with Gem-DHA (50 mg/kg, ˜0.087 mmole/kg), gemcitabine HCl (26.1 mg/kg, ˜0.087 mmole/kg), or left untreated. Gem-DHA was in a Tween 80/ethanol/water solution with 5% (w/v) of mannitol, and gemcitabine HCl was in sterile mannitol solution (5%, w/v). Treatments were repeated twice a week for a total 7 doses. Thirty days after the first treatment, mice were sacrificed and tumors were dissected from the pancreas, weighed, and fixed in formalin. The doses were based on the average weight of mice in the same group on the day of injection, and were adjusted only if the weight of an individual mouse was above or below 10% of the average weight.
Tumor tissues were sectioned and stained in the Histology and Tissue Analysis Core at Dell Pediatric Research Institute at the University of Texas at Austin or in the Department of
Molecular Carcinogenesis at the University of Texas M.D. Anderson Cancer Center at Science Park (Smithville, Texas) with hematoxylin & eosin (H&E), antibodies against cleaved lamin-A (apoptosis marker), CD-31 (angiogenesis marker), or Ki-67 (proliferation marker). Slides were then scanned, and images were taken using the ScanScope XT (Aperio Technologies, Vista, CA). […] In addition, several areas of necrosis can also be seen in the centers of the tumors. […] Several pyknotic cells with condensed chromatin can also be seen in tumors in mice that were treated with Gem-DHA.

[7] = Plasma pharmacokinetics after i.v. injection; format: in vivo, C57BL/6 mice; conditions: 75 mg/kg
Description: Healthy female C57BL/6 mice (6-8 weeks) were injected intravenously (i.v.) with Gem-DHA solution at a dose of 75 mg/kg via the tail vein. At pre-determined time intervals (5, 15, 30, 60, 120, and 180 min), 3 mice were euthanized at each time point to collect plasma samples. Gem-DHA was extracted twice using ethyl acetate and analyzed using HPLC. Data were analyzed using the Pharsight WinNonlin software (Sunnyvale, Calif.).

CC/C=C\C/C=C\C/C=C\C/C=C\C/C=C\C/C=C\CCC(=O)Nc1ccn(C2OC(CO)C(O)C2(F)F)c(=O)n1 (centres unmarked) [Gem-DHA, 4-(N)-Docosahexaenoyl Difluorodeoxycytidine]
Time stable in octanol [1]: at least 18 h
Solubility in ethanol or Tween 80 [2]: freely soluble
IC50 [3]: 0.034 nM
Inhibition of tumor cell growth (comparison) [4]: more effective than gemcitabine alone or the physical mixture of gemcitabine and DHA
Cytotoxicity after 4 h of co-incubation [5]: significant cytotoxicity
H&E histology of tumor tissue ([6]; compared with tumors of untreated mice): less densely packed cancer cells
Inhibition of growth of Panc-1-Luc tumors ([6]; i.p., ~0.087 mmole/kg (Gem-DHA 50 mg/kg, gemcitabine HCl 26.1 mg/kg), twice a week, 7 doses): more effective than the molar equivalent dose of gemcitabine HCl
Percent of Ki-67 positive cells in tumors ([6]; versus mice treated with gemcitabine HCl): significantly lower percent of Ki-67 positive cells
Cleaved lamin-A positive staining in tumors ([6]; versus untreated mice): significantly higher percent of positive staining
Micro-vessel density (MVD) in tumors, anti-CD-31 staining ([6]; versus untreated mice): significantly lower than in mice that were not treated
Elimination from plasma (model) [7]: follows a bi-exponential model
